Measurements published in ChEMBL document CHEMBL5356973 (J Med Chem, 2023).
Calls of active or inactive are those of the source. No cut-off for these calls is given here.

Legend:
Mus musculus [1] = assay: Antinociceptive activity in po dosed Kunming mouse assessed as changes in tail flick latency measured for 360 mins by tail-flick test; format: functional
Mus musculus [2] = assay: Antinociceptive activity in icv dosed Kunming mouse assessed as changes in tail flick latency measured for 360 mins by tail-flick test; format: functional
Mus musculus [3] = assay: Antinociceptive activity in Kunming mouse assessed as changes in tail flick latency at 0.88 nmol/kg, sc pretreated with nor-binaltorphimine at 10 nmol, icv for 30 mins followed by compound addition and measured for 360 mins by tail-flick test; format: functional, organism-based
[4] = Agonist activity at NPFF1R (unknown origin) transfected in CHO cells co-expressing Galphaq15 assessed as increase in calcium mobilization by measuring maximal efficacy by Fluo-4AM dye based assay relative to control; format: functional, cell-based; conditions: Homo sapiens, filed as agonist
[5] = Metabolic stability in mouse plasma assessed as degradation half life at 10 mM measured upto 480 mins by RP-HPLC analysis; format: ADME, cell-free
Mus musculus [6] = assay: Antinociceptive activity in Kunming mouse assessed as changes in tail flick latency by measuring time duration of action at 1 to 10 pmol, icv measured for 360 mins by tail-flick test; format: functional; conditions: dose 1-10 pmol, 6 h
[7] = Induction of antinociceptive tolerance in Kunming mouse assessed as decrease in tail flick latency at 0.88 nmol/kg, sc administered once daily for 8 days and measured once daily by tail-flick test; format: toxicity, organism-based; conditions: in vivo, 192 h, time 8 day
[8] = Toxicity in Kunming mouse assessed as addiction behavior at 88 nmol/kg, sc administered for 3 days starting from day 2 and measured on day 5 by conditioned place preference test; format: organism-based; conditions: in vivo, 96 h, time 4 day
Mus musculus [9] = assay: Antinociceptive activity in Kunming mouse assessed as changes in tail flick latency at 0.88 nmol/kg, sc pretreated with naltrindole at 10 nmol, icv for 10 mins followed by compound addition and measured for 360 mins by tail-flick test; format: functional, organism-based
Mus musculus [10] = assay: Antinociceptive activity in Kunming mouse assessed as changes in tail flick latency by measuring time duration of antinociceptive effect at 0.88 nmol/kg, sc by tail-flick test; format: functional
[11] = target: T1, Delta-type opioid receptor (Homo sapiens, UniProt P41143); assay: Agonist activity at DOR (unknown origin) transfected in CHO cells co-expressing Galphaq15 assessed as increase in calcium mobilization by Fluo-4AM dye based assay; format: functional, cell-based
Mu-type opioid receptor [12] = target: T2, Mu-type opioid receptor (Homo sapiens, UniProt P35372); assay: Agonist activity at MOR (unknown origin) transfected in CHO cells co-expressing Galphaq15 assessed as increase in calcium mobilization by measuring maximal efficacy by Fluo-4AM dye based assay relative to control; format: functional, cell-based; conditions: filed as agonist
[13] = Toxicity in Kunming mouse assessed as effect on motor coordination at 88 nmol/kg, sc measured after 15 to 45 mins by rotarod test; format: organism-based; conditions: in vivo, time 15-45 min
[14] = Toxicity in Kunming mouse assessed as effect on locomotor activity at 88 nmol/kg, sc measured after 20 to 180 mins by open field test; format: organism-based; conditions: in vivo, time 20-180 min
Mus musculus [15] = assay: Antinociceptive activity in Kunming mouse assessed as changes in tail flick latency by measuring maximal possible effect at 0.88 nmol/kg, sc measured after 120 mins by tail-flick test; format: functional; conditions: 2 h
[16] = target: T3, Kappa-type opioid receptor (Homo sapiens, UniProt P41145); assay: Agonist activity at KOR (unknown origin) transfected in CHO cells co-expressing Galphaq15 assessed as increase in calcium mobilization by measuring maximal efficacy by Fluo-4AM dye based assay relative to control; format: functional, cell-based; conditions: filed as agonist
Mus musculus [17] = assay: Antinociceptive activity in Kunming mouse assessed as changes in tail flick latency by measuring maximal possible effect at 0.88 nmol/kg, sc measured after 60 mins by tail-flick test; format: functional; conditions: 1 h
Mu-type opioid receptor [18] = target: T2, Mu-type opioid receptor; assay: Agonist activity at MOR (unknown origin) transfected in CHO cells co-expressing Galphaq15 assessed as increase in calcium mobilization by Fluo-4AM dye based assay; format: functional, cell-based
[19] = Metabolic stability in mouse brain homogenate assessed as degradation half life at 10 mM measured upto 480 mins by RP-HPLC analysis; format: ADME, tissue-based
[20] = Toxicity in sc dosed 16 hrs fasted Kunming mouse assessed as constipation by measuring inhibition of gastrointestinal transit administered for 15 mins followed by charcoal meal and measured after 30 mins; format: organism-based; conditions: in vivo, 0.75 h, time 45 min
[21] = Toxicity in sc dosed Kunming mouse assessed as effect on naloxone-induced jumping response at 88 nmol/kg, sc administered every 8 hrs for 3 days followed by naloxone administration at 2 hrs post last dose and measured immediately by Nal-precipitated withdraw test; format: organism-based; conditions: in vivo, 74 h
[22] = target: T3, Kappa-type opioid receptor; assay: Agonist activity at KOR (unknown origin) transfected in CHO cells co-expressing Galphaq15 assessed as increase in calcium mobilization by Fluo-4AM dye based assay; format: functional, cell-based
[23] = target: T4, Neuropeptide FF receptor 2 (Homo sapiens, UniProt Q9Y5X5); assay: Agonist activity at NPFF2R (unknown origin) transfected in HEK293 cells co-expressing Galphaq15 assessed as increase in calcium mobilization by Fluo-4AM dye based assay; format: functional, cell-based
[24] = target: T1, Delta-type opioid receptor; assay: Agonist activity at DOR (unknown origin) transfected in CHO cells co-expressing Galphaq15 assessed as increase in calcium mobilization by measuring maximal efficacy by Fluo-4AM dye based assay relative to control; format: functional, cell-based; conditions: filed as agonist
Mus musculus [25] = assay: Antinociceptive activity in Kunming mouse assessed as changes in tail flick latency at 0.88 nmol/kg, sc pretreated with beta-funaltrexamine at 10 nmol, icv for 4 hrs followed by compound addition and measured for 360 mins by tail-flick test; format: functional, organism-based
Mus musculus [26] = assay: Antinociceptive activity in Kunming mouse assessed as changes in tail flick latency by measuring maximal possible effect at 0.88 nmol/kg, sc measured after 240 mins by tail-flick test; format: functional; conditions: 4 h
Mus musculus [27] = assay: Antinociceptive activity in Kunming mouse assessed as changes in tail flick latency at 0.009 nmol/kg, sc pretreated with 1-adamantanecarbonyl-RF-NH2 at 10 nmol, icv for 5 mins followed by compound addition and measured for 360 mins by tail-flick test; format: functional, organism-based
Mus musculus [28] = assay: Antinociceptive activity in Kunming mouse assessed as changes in tail flick latency by measuring maximal possible effect at 0.88 nmol/kg, sc measured after 30 mins by tail-flick test; format: functional; conditions: 0.5 h
Mus musculus [29] = assay: Antinociceptive activity in Kunming mouse assessed as changes in tail flick latency by measuring time duration of action at 0.88 to 8.82 nmol/kg, po measured for 360 mins by tail-flick test; format: functional; conditions: dose 0.88-8.82 nmol/kg, 6 h
[30] = Toxicity in Kunming mouse assessed as reduction in respiration frequency at 88 nmol/kg, sc measured upto 100 mins by whole-body plethysmography; format: organism-based; conditions: in vivo, 1.667 h
Mus musculus [31] = assay: Antinociceptive activity in sc dosed Kunming mouse assessed as changes in tail flick latency measured after 10 to 360 mins by tail-flick test; format: functional; conditions: time 10-360 min
[32] = target: T4, Neuropeptide FF receptor 2; assay: Agonist activity at NPFF2R (unknown origin) transfected in HEK293 cells co-expressing Galphaq15 assessed as increase in calcium mobilization by measuring maximal efficacy by Fluo-4AM dye based assay relative to control; format: functional, cell-based; conditions: filed as agonist
Mus musculus [33] = assay: Antinociceptive activity in Kunming mouse assessed as changes in tail flick latency at 0.88 nmol/kg, sc pretreated with naloxone methiodide at 5 nmol, icv for 10 mins followed by compound addition and measured for 360 mins by tail-flick test; format: functional, organism-based
Mus musculus [34] = assay: Antinociceptive activity in Kunming mouse assessed as changes in tail flick latency by measuring maximal possible effect at 0.88 nmol/kg, sc measured after 20 mins by tail-flick test; format: functional

T4 sequence (Q9Y5X5 whole entry): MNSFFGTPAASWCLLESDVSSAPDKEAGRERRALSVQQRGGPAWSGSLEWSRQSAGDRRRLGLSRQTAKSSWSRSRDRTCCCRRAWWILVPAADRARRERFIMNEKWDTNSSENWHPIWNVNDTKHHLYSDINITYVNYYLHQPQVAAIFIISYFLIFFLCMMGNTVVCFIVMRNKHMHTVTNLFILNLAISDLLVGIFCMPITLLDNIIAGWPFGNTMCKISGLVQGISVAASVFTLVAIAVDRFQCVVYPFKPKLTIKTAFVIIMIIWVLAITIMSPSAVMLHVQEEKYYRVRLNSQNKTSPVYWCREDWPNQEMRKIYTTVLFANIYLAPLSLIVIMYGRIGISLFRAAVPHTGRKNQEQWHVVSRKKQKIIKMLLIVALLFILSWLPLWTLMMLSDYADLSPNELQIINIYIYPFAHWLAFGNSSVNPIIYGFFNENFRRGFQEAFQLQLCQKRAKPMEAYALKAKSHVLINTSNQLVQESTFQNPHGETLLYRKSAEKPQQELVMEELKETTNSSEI
T2 sequence (P35372 whole entry): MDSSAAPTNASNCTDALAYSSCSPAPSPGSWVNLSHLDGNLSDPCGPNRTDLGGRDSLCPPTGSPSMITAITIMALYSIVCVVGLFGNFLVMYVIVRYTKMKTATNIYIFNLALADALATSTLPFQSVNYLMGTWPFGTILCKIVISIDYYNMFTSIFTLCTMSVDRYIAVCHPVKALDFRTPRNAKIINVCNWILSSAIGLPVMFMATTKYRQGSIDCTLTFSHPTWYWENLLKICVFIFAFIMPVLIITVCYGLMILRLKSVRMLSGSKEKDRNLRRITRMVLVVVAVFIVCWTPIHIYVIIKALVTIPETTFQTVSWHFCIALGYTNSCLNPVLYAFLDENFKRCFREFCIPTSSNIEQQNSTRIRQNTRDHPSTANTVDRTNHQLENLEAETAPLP
T1 sequence (P41143 whole entry): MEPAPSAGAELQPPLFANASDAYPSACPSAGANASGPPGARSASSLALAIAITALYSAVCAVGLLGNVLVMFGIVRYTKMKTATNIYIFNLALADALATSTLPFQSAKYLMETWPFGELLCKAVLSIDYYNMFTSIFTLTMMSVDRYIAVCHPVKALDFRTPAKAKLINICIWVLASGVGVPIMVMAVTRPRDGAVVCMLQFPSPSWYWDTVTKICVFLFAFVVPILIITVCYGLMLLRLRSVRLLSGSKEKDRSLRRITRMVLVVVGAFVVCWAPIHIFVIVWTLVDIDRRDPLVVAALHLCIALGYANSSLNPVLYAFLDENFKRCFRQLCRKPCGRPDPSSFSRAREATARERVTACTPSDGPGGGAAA
T3 sequence (P41145 whole entry): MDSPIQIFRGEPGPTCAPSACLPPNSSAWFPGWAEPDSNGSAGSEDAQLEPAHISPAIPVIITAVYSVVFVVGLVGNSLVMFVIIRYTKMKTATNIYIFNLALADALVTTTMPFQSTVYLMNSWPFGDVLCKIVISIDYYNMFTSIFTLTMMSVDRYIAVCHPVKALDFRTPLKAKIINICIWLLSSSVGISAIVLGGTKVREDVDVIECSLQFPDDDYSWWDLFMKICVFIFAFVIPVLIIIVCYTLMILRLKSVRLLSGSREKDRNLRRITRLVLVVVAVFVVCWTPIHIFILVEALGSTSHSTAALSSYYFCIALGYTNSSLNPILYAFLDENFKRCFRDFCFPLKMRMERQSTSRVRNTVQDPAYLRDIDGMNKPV

CN1C(=O)CNC(=O)[C@H](N[C@@H](Cc2ccc(O)cc2)C(=O)O)CCCC/C=C/C[C@@H](C(=O)N2CCC[C@H]2C(=O)N[C@@H](CCC(N)=O)C(=O)N[C@@H](CCCNC(=N)N)C(=O)N[C@@H](Cc2ccccc2)C(N)=O)NC(=O)[C@@H]1Cc1ccccc1
Activity (Mus musculus [1]): Dose-Dependent Effect
ED50 (Mus musculus [1]; 6 h): 0.00195 µmol/kg
Activity (Mus musculus [2]): Dose-Dependent Effect
ED50 (Mus musculus [2]; 6 h): 1.82 pmol
Activity (Mus musculus [3]): inactive
Emax [4]: 88.1%
half-life at 10000 µM [5]: 0.63 h
Time (Mus musculus [6]): <=360 min
Activity [7]: Non-Toxic
Activity [8]: Non-Toxic
Activity (Mus musculus [9]): Active
Time (Mus musculus [10]): 360 min
EC50 [11]: 228 nM
Emax (Mu-type opioid receptor [12]): 95%
Activity [13]: Non-Toxic
Activity [14]: Non-Toxic
MPE (Mus musculus [15]): 72.8%
Emax [16]: 106%
MPE (Mus musculus [17]): 80.5%
EC50 (Mu-type opioid receptor [18]): 15.9 nM
half-life at 10000 µM [19]: 2.98 h
ED50 [20]: 95.4 nmol/kg
Activity [21]: Non-Toxic
EC50 [22]: 346 nM
EC50 [23]: 33.1 nM
Emax [24]: 77.3%
Activity (Mus musculus [25]): inactive
MPE (Mus musculus [26]): 43.5%
Activity (Mus musculus [27]): Active
MPE (Mus musculus [28]): 77.2%
Time (Mus musculus [29]): <=360 min
Activity [30]: Non-Toxic
Activity (Mus musculus [31]): Dose-Dependent Effect
ED50 (Mus musculus [31]): 2e-05 µmol/kg
Emax [32]: 119%
Activity (Mus musculus [33]): inactive
MPE (Mus musculus [34]): 89.9%
